Tested on: isolated cardiac myocytes
Assay: Ca2+ transients (indo-1 fluorescence ratio) in isolated cardiac myocytes in culture, with drug and 16 Hz alternating magnetic field
Assay type: cell-based, rat
Description: Cardiac myocytes were extracted in order to study intracellular free calcium ([Ca^2+]i) shifts as a result of exposure to alternating magnetic field. This was estimated from indo-1 fluorescence using the ratio method. […] The hearts were minced and then gently agitated in a solution of proteolytic enzymes, RDB. The RDB was diluted 1:100 in Ca^2+ and Mg^2+ free PBS at 25° C. for a few cycles of 10 minutes each, Dulbecco's modified Eagle's medium (DMEM) supplemented with inactivated 10% horse serum (Biological Industries, Kibbutz Beit Haemek, Israel), and 0.5% chick embryo extract was added to the supernatant suspensions containing dissociated cells. The mixture was centrifuged at 300 g for 5 minutes. The supernatant phase was discarded and the cells were resuspended in the same medium. The suspensions of the cells were diluted to 1.0×10^6 cells/ml and were placed in 35-mm plastic culture dishes on collagen/gelatin coated cover glasses. The culture was incubated in a humidified atmosphere of 5% CO2, 95% air at 37° C. All experiments were performed at day 4 in culture. In a second set of experiments the specificity of the myocyte ion channels (KATP) was tested by inducing exposure alternating magnetic field of 16 Hz, that were delivered for 10 minutes of base line (n=10). Following baseline recording, the channels were blocked by the addition to the dish 5 μM of Glibenclamide and alternating magnetic field was delivered for an additional 20 minutes. In the third setup of the experiment the amount of 5 μM of Glibenclamide was primarily added (n=10), to be followed by exposure to alternating magnetic field of 20 min. In the fourth phase of the experimental setup 3 μM of Nicorandil, a potassium channel opener (KCO) were added (n=10), following 10 minutes, alternating magnetic field was exposure was introduced for 20 minutes. In the fifth phase of the experiment alternating magnetic field was applied for 20 minutes followed by introduction of 3 μM of Nicorandil (n=5). Intracellular free calcium concentration [Ca^2+], was estimated from indo-1 fluorescence using the ratio method previously described before by Grynkiewicz et al (1985). Following incubation, the cells were rinsed twice with glucose enriched PBS and transferred to a chamber on the stage of a Zeiss inverted epifluorescent microscope. Indo-1-AM was excited at 355 nm and the emitted light was then split by a dichroic mirror to two photomultipliers, with input filters at 405 and 495 nm. The fluorescence ratio of 405/495 nm, which is proportional to [Ca2+] was fed into a computer program. The time integral of Ca^2+ Influx was determined as area under the curve via a program, which gives the integral during any specified time window. From this value the baseline offset, measured at the systolic and diastolic phase, were subtracted. Baseline data from calcium transients were normalized to 100 percent and all values were presented as percent change from baseline. Mean and SD were calculated. A P≦0.05 was considered statistically significant.

Row | Structure (SMILES) | change of amplitude of Ca2+ transients (widening) with glibenclamide (5 μM Glibenclamide added, before magnetic field, percent change from baseline, n=10, FIG. 8B) | change of amplitude of Ca2+ transients (narrowing) with glibenclamide following 20 minutes of alternating magnetic field (5 μM Glibenclamide then 20 min field of 16 Hz, 80 nT, n=10, FIG. 8C) | effect on calcium ions efflux from myocytes in cultures following exposure to 16 Hz magnetic field (low intensities of 16 Hz magnetic field, KATP channel blocker) | change of amplitude of Ca2+ transients (narrowing) with nicorandil (3 μM Nicorandil added, before magnetic field, percent change from baseline, FIG. 9B) | change of amplitude of Ca2+ transients (narrowing) with nicorandil following 20 minutes of alternating magnetic field (3 μM Nicorandil then 20 min field of 16 Hz, 80 nT, n=4, FIG. 9C) | combination of magnetic field exposure and KCO administration (nicorandil plus alternating magnetic field, 15.95 Hz, FIGS. 9A-C)
1 | COc1ccc(Cl)cc1C(=O)NCCc1ccc(S(=O)(=O)NC(=O)NC2CCCCC2)cc1 [glibenclamide] | +30%±9% | −24%±6% | counteracting effect | – | – | –
2 | O=C(NCCO[N+](=O)[O-])c1cccnc1 [nicorandil] | – | – | – | −58%±7% | −63%±3% | synergistic effect
